Assay results: patent publication US20130239239A1, “LMCD1 CANCER MARKERS AND METHODS FOR THEIR USE” (Academia Sinica, priority 2012, published 2013)

Key:
[1] = system: LMCD1 transfectants in SK-Hep1 cells; assay: Lamellipodia formation (Arp3 staining, cell morphology) in LMCD1 transfectants; format: cell-based, human; conditions: LMCD1-E135K and LMCD1-K237R cells
From the text: Coverslips were mounted on slides using […] mounting medium with DAPI (Vector Laboratories).

[2] = system: LMCD1 transfectants in SK-Hep1 cells; assay: Wound healing assay in LMCD1 stable transfectants of SK-Hep1 cells; conditions: dose dependent
Method: To test the hypothesis that LMCD1 mutants play a role in cell migration regulation, three different cell migration assays for reflecting alteration of directed migration, random migration, and chemotaxis were performed. Directed migration of these SK-Hep1 transfectants was inspected by wound healing assay. For the wound healing assay, cells were seeded in a 6-well plate at a confluent density and cultured overnight to grow into a monolayer. The culture was scratched with a p200 pipette tip, and the wound was allowed to close for 20 hours. The average reduction of distance between two wound edges was calculated to evaluate the rate of wound closure. […] Cells were photographed immediately after wounding (FIG. 7a upper) and 2 hours after wounding (FIG. 7a lower), with arrows indicating protrusion of cells at the wound edge. […] Images were obtained using an Olympus BX51 fluorescence microscope or a PerkinElmer Ultra View confocal microscope (PerkinElmer Life Sciences).
The bar graph to the right of the images in FIG. 4c provides quantification of average migration results, normalized to the mock cells (±SEM).

LMCD1-K237R = LMCD1-K237R expression in PLC/PRF/5 cells by reverse-transcription PCR; format: cell-based, human; conditions: 10 nM 17β-estradiol
Method: Five independent pLKO.1 lentiviral-based shRNA clones targeting human LMCD1 (NM_014583) from The RNAi Consortium (TRC) library were tested. […] Human shRNA for RAC1 (shRac1) was also obtained from TRC library with number TRCN0000004870: 5′-[…]-3′. pLKO.1-shLuc was used as control. To generate shRNA lentiviral particles, HEK293T cells were co-transfected with a plasmid mixture (pLKO.1-puro-shRNA, pCMVΔR8.91 packaging plasmid, and pMD.G envelope plasmid) by calcium phosphate protocol. Cell medium containing viral particles was collected three times at 24-hour intervals after transfection. The virus-containing medium was aliquoted and used to infect cells or stored at −80° C. until use. Ninety-six hours after infection, cells were subjected to further experimental assays or harvested for LMCD1 or Rac1 gene expression analysis by RT-PCR or Western blotting.
(§1) Trans-well migration assays were performed as in Example 3. Expression of LMCD1-K237R in PLC/PRF/5 cells (1×10^5 cells) was induced by exposure to 10 nM 17β-estradiol. Results are provided in FIG. 4d, with some cells also being treated with the indicated shRNA. Images in FIG. 4d are representative of migration results from three independent experiments, with (+E2) and without (−E2) estradiol treatment. The migration results are quantified by bar graph in FIG. 4e (±SEM). […]

PLC/PRF/5 cells = assay: Trans-well migration assay in PLC/PRF/5 cells; format: cell-based, human; conditions: 10 nM 17β-estradiol, 24 hours
Method: For trans-well assay, 1×10^4 cells resuspended in serum-free medium were seeded into the upper chamber of an insert with an 8.0-μm pore size of polycarbonate membrane (BD Biosciences) and then placed into the bottom chamber containing 10% FBS as chemoattractant. Cells were allowed to migrate for 24 hours followed by methanol fixation and Giemsa staining (MERCK Darmstadt, Germany). Un-migrated cells on the membrane apical side were removed. Migrated cells were photographed with a phase contrast microscope and the number was counted by using Image-Pro Plus software. All experiments were performed in triplicates. […] Images in the top panel of FIG. 3e are representative of three independent experiments performed in triplicate. Quantification of average migrated cell number is shown in bar graphs below the images (±SEM).
as §1

[3] = system: Rac1 interaction with Rac1-specific GEFs TrioN, GEF-H1 and Tiam1; conditions: cited from earlier work

## CCN(CC)CCCC(C)Nc1nc(C)cc(Nc2ccc3nc(C)cc(N)c3c2)n1 (centres unmarked) [NSC23766]
[1]
  lamellipodia extension: inhibited lamellipodia extension
[2]
  cell mobility (wound closure): decreased

## C[C@]12CC[C@@H]3c4ccc(O)cc4CC[C@H]3[C@@H]1CC[C@@H]2O [estrogen, 17β-estradiol]
LMCD1-K237R
  expression of LMCD1-K237R: up-regulate
PLC/PRF/5 cells
  cell migration: up-regulate

## Rac1 Inhibitor W56: peptide comprising residues 45-60 of the guanine nucleotide exchange factor (GEF) recognition/activation site of Rac1 (MVDGKPVNLGLWDTAG; UniProt P63000 45-60, looked up, fragment)
[3]
  inhibition of Rac1 interaction with Rac1-specific GEFs TrioN, GEF-H1 and Tiam1: selectively inhibits
